“And” between values parts separate entries of the source, which are not always exact repeats. Equal entries are not always repeated.
System: CIDP mice
Experiment: Sciatic nerve electrophysiology (CMAP, NCV), CIDP mouse model
Format: in vivo
Conditions: for Compound muscle action potential (Mean ± SD) / Nerve conduction velocity (Mean ± SD): CIDP mice; for Electrophysiology, Amplitude / Electrophysiology, Conduction velocity / Electrophysiology, T1 distal / Electrophysiology, T2 proximal: per mouse, listed as hAAT
Description: C57BL/6 mice were received at 8 weeks of age and housed under controlled conditions for the duration of the study. Three groups of 4 animals each were assigned to the following subcutaneous treatments twice daily at 7:00 AM and 7:00 PM for 2 weeks, from 20 to 35 days after the start of disease induction: • Wild type (WT) mice receiving the vehicle, 0.9% NaCl (positive control) • CIDP mice receiving the vehicle, 0.9% NaCl (negative control) • CIDP mice receiving human AAT (AAT), 50 mg/kg per injection
Disease induction consisted in subcutaneous injection of mouse sciatic nerve homogenate in phosphate buffer saline (PBS)+Freund's adjuvant mixture at 10 mL/kg. For each treatment, 3 different body sites injections were performed. Control mice also received three subcutaneous injections of PBS+Freund's adjuvant at the same 3 different body sites.
On the first (Day 20) and last (Day 35) day of treatment, the neuromuscular and performance of animals was tested with a rotarod test, grip test and a sensory test using the Von Frey filament test, as well as sciatic nerve electrophysiology test. After the last treatment at Day 35, these tests were repeated, animals were sacrificed and the left sciatic nerve was sampled for histological evaluation of the number and size of […].

[1] = Day 35, AAT 50 mg/kg sc twice daily

With alpha1-antitrypsin (AAT) protein the “NCV compared to the vehicle treated group” value (CIDP + AAT 50 mg/kg sc twice daily) was “increase”, the “CMAP amplitude compared to the CIDP+vehicle treated group” value (CIDP + AAT 50 mg/kg sc twice daily, Day 35) was “increase” and the “Compound muscle action potential (Mean ± SD)” value (Day 20 (baseline)) was 3.73 ± 0.42 mV. For the same substance, the “Nerve conduction velocity (Mean ± SD)” value (Day 20 (baseline)) was 13.10 ± 4.49 m/s, the “Compound muscle action potential (Mean ± SD)” value [1] was 4.56 ± 0.76 mV and the “Nerve conduction velocity (Mean ± SD)” value [1] was 16.85 ± 2.43 m/s. The “Electrophysiology, Amplitude, group MEAN” value (Day 20) was 3.731 mV, the “Electrophysiology, Conduction velocity, group MEAN” value (Day 20) was 13.098 m/s and the “Electrophysiology, Amplitude, group MEAN” value (Day 35) was 4.558 mV. The “Electrophysiology, Conduction velocity, group MEAN” value (Day 35) was 16.851 m/s, the “Electrophysiology, Amplitude” value (Day 20) was 3.734 mV and 3.562 mV and 3.318 mV and 4.308 mV and the “Electrophysiology, Conduction velocity” value (Day 20) was 16.096 m/s and 11.057 m/s and 7.775 m/s and 17.463 m/s. For the same substance, the “Electrophysiology, T1 distal” value (Day 20) was 2.673 ms and 3.177 ms and 2.864 ms and 3.114 ms, the “Electrophysiology, T2 proximal” value (Day 20) was 3.605 ms and 4.533 ms and 4.793 ms and 3.973 ms and the “Electrophysiology, Amplitude” value (Day 35) was 3.490 mV and 5.146 mV and 5.068 mV and 4.527 mV. The “Electrophysiology, Conduction velocity” value (Day 35) was 16.007 m/s and 16.112 m/s and 14.881 m/s and 20.402 m/s, the “Electrophysiology, T1 distal” value (Day 35) was 4.089 ms and 3.902 ms and 4.177 ms and 3.970 ms and the “Electrophysiology, T2 proximal” value (Day 35) was 5.026 ms and 4.833 ms and 5.185 ms and 4.705 ms.

From patent US20260028390A1, “ALPHA1-ANTITRYPSIN FOR USE IN THE TREATMENT OF DISEASES OR DISORDERS OF THE NERVOUS SYSTEM SUCH AS CHRONIC INFLAMMATORY DEMYELINATING POLYNEUROPATHY” (Ageronix SA, priority 2022, published 2026)
